In PubChem BioAssay AID1963439 (Molecular Pharmacology Branch, DTP, NCI, 2024) one finds viability, T/C and IC50 data, which are given here for two compounds.

“And” between values parts separate entries of the source, which are not always exact repeats. Equal entries are not always repeated.

For this experiment, the system named is NCI-H196 complex spheroids with HUVEC/MSC, growth % T/C. The experiment in a line: Anticancer human tumor NCI-H196 cell line growth inhibition [Asc].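 For all read-outs here: spheroids exposed to compound for 7 days before measurement.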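 For viability, T/C: 100% = DMSO vehicle control wells.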 The following applies: for viability, T/C: stronger effect = lower value. How it is done: Multicellular complex tumor spheroid response to apoptosis pathway targeting inhibitors Alrizomadlin, Pelcitoclax, and Dasminapant in combination with a variety of drugs and investigational agents in selected tumor cell lines
The MDM2 inhibitor alrizomadlin, the Bcl-2/Bcl-xL inhibitor pelcitoclax, and the IAPs inhibitor dasminapant were evaluated both individually and in combination with standard of care and investigational anticancer small molecules within a complex spheroid model of solid tumors. . Complex spheroids include a stromal component modeled by human endothelial cells (HUVEC) and fibroblasts modeled by human mesenchymal stem cells (MSCs). The concentration ranges selected for each drug and investigational agent were based upon clinically achievable concentrations if the clinical Cmax of the agent was known.
Compounds. The drugs and investigational agents: alrizomadlin (APG-115; NSC831270), pelcitoclax (APG-1252; NSC835773), dasminapant (APG-1387;NSC834197), TAK-243 (NSC785004), copanlisib (NSC809693), olaparib (NSC753686), talazoparib (NSC767125), cobimetinib (NSC 768068), eltanexor (KPT-8602, NSC 794443), abemaciclib (NSC 768073), sotorasib (NSC818433), adagrasib (NSC 831453), MRTX-1133 (NSC 836407), Iadademestat (ORY1001, NSC 806812), and RMC-4630 (NSC839698), were obtained from the NCI Developmental Therapeutics Program Chemical Repository. The FDA-approved anticancer drug set is available from the Developmental Therapeutics Program at https://dtp.cancer.gov/organization/dscb/obtaining/available plates.htm. […] The stock solutions were prepared in dimethyl sulfoxide (DMSO, Sigma-Aldrich, St. Louis, MO, cat. D2650) at 800-fold the tested concentration and stored at -70 degrees C prior to their use. All drugs and investigational agents were tested over a range starting from a high concentration at or near the clinical Cmax and decreasing in half-log increments. If the clinical Cmax for an agent had not been determined, the highest concentration tested was 10 microM.
The patient-derived cancer (PDC) cell lines include five colon adenocarcinomas: 186277-243-T-J2-PDC, 616215-338-R-J1-PDC, 439559-082-T-J2-PDC, 463943-066-T-J2-PDC, and 519858-162-T-J1-PDC; three pancreatic carcinomas: 323965-272-R-J2-PDC, 521955-158-R6-J3-PDC, and 521955-158-R2-J5-PDC; two uterine sarcomas: 327498-152-R-J2-PDC and 993429-296-R-J1-PDC; two rhabdomyosarcomas: 755483-174-R-J1-PDC and 772245-204-R-J1-PDC; two soft tissue sarcomas: 126254-015-R-J1-PDC and 494315-158-R-J1-PDC; two malignant fibrous histiocytomas: 317291-083-R-J1-PDC and 596521-263-R-J1-PDC; two breast carcinomas: 171881-019-R-J1-PDC and 885512-296-R-J2-PDC; and one ovarian carcinoma: 6556581-035-R-J-PDC were obtained from the NCI PDMR, (https://pdmr.cancer.gov). The established cell lines HSSY-2 synovial sarcoma (RRID:CVCL 8719), SYO-1 synovial sarcoma (RRID:CVCL_7146), MPNST malignant peripheral neural sheath tumor were obtained from the Sloan Kettering Institute. The following established cell lines were purchased from the American Type Culture Collection (ATCC, Manassas, VA), Sor the received from the NCI repository:, PANC-1 pancreatic carcinoma (CRL-1469, RRID:CVCL_0480), OVCAR-5 ovarian carcinoma (RRID:CVCL_1628), OVCAR-8 ovarian carcinoma (RRID:CVCL_1629), , MCF-7 breast carcinoma (CRL-12584, RRID:CVCL_0031), MDA-MB-231 breast carcinoma (CRL-12532, RRID:CVCL_0062), NCI-H1876 small cell lung carcinoma (CRL-5902, RRID:CVCL_1503), NCI-H510A small cell lung carcinoma (HTB-184, RRID:CVCL_1565), NCI-H1417 (CRL-5869, RRID:CVCL_1469), and NCI-H196 small cell lung carcinoma (CRL-5823, RRID:CVCL_1509). Dr. Peter Houghton (Greehey Children's Cancer Research Institute, University of Texas Health Science Center, San Antonio, TX) provided Rh-18 rhabdomyosarcoma (RRID:CVCL_1659). Pooled donor human umbilical vein endothelial cells (HUVEC, Lonza, cat. CC-2519) and human mesenchymal stem cells (hMSC, Lonza, cat. PT-2501) were purchased from Lonza (Walkersville, MD).
Cell Culture. […]

On to `C=CC(=O)N1CCN(c2nc(=O)n(-c3c(C)ccnc3C(C)C)c3nc(-c4c(O)cccc4F)c(F)cc23)C(C)C1` (configuration not stated), for which the viability, T/C (commonly the ratio of treated to control) reads like this: (compound 0.0316 µM) 92% and 102% and 106%; (compound 0.1 µM) 94.8% and 110% and 103%; (compound 0.316 µM) 103% and 93.4% and 109%; (compound 1 µM) 99.8% and 106% and 112%; (compound 3.16 µM) 97.6% and 103% (2×); (compound 10 µM) 95.1% and 114% and 91.3%. Besides, the IC50 (as a rule, the concentration at which inhibition is half-maximal) (curve of compound) was more than 10000 nM.

With `CNC(C)C(=O)NC1CN(S(=O)(=O)c2cccc(S(=O)(=O)N3CCC4CCC(C(=O)NC(c5ccccc5)c5ccccc5)N4C(=O)C(NC(=O)C(C)NC)C3)c2)CCC2CCC(C(=O)NC(c3ccccc3)c3ccccc3)N2C1=O` (configuration not stated) + CCN1C(C(=O)NC23CCC(C(=O)O)(CC2)CC3)C(c2cccc(Cl)c2F)C2(C(=O)Nc3cc(Cl)ccc32)C12CCCCC2, the IC50 (curve of first compound, second compound 0.03 µM) was less than 3.16 nM; the half-maximal inhibitory concentration (IC50) (curve of first compound, second compound 0.0949 µM) was less than 3.16 nM; the IC50 (curve of first compound, second compound 0.3 µM) is less than 3.16 nM; the IC50 (curve of first compound, second compound 0.949 µM) worked out at 3.18 nM; the IC50 (curve of first compound, second compound 3 µM) is less than 3.16 nM. The viability, T/C by setting is: (second compound 0.03 µM, first compound 0.00316 µM) 40.6%; (second compound 0.03 µM, first compound 0.01 µM) 17.9%; (second compound 0.03 µM, first compound 0.0316 µM) 4.75%; (second compound 0.03 µM, first compound 0.1 µM) 1.79%; (second compound 0.03 µM, first compound 0.316 µM) 2.4%; (second compound 0.03 µM, first compound 1 µM) 1.46%. Further, the viability, T/C runs as follows: (second compound 0.0949 µM, first compound 0.00316 µM) 45.3%; (second compound 0.0949 µM, first compound 0.01 µM) 19.1%; (second compound 0.0949 µM, first compound 0.0316 µM) 4.24%; (second compound 0.0949 µM, first compound 0.1 µM) 4.09%; (second compound 0.0949 µM, first compound 0.316 µM) 2.61%; (second compound 0.0949 µM, first compound 1 µM) 1.28%. Moreover, the viability, T/C is 47.4% (second compound 0.3 µM, first compound 0.00316 µM); 16.6% (second compound 0.3 µM, first compound 0.01 µM); 5.95% (second compound 0.3 µM, first compound 0.0316 µM); 3.82% (second compound 0.3 µM, first compound 0.1 µM); 3.47% (second compound 0.3 µM, first compound 0.316 µM); 1.29% (second compound 0.3 µM, first compound 1 µM). Moreover, the viability, T/C is 50.4% (second compound 0.949 µM, first compound 0.00316 µM); 18.4% (second compound 0.949 µM, first compound 0.01 µM); 6.82% (second compound 0.949 µM, first compound 0.0316 µM); 2.74% (second compound 0.949 µM, first compound 0.1 µM); 2.84% (second compound 0.949 µM, first compound 0.316 µM); 2.2% (second compound 0.949 µM, first compound 1 µM). Moreover, the viability, T/C is, setting by setting: (second compound 3 µM, first compound 0.00316 µM) 47.6%; (second compound 3 µM, first compound 0.01 µM) 16.9%; (second compound 3 µM, first compound 0.0316 µM) 4.77%; (second compound 3 µM, first compound 0.1 µM) 2.4%; (second compound 3 µM, first compound 0.316 µM) 3.09%; (second compound 3 µM, first compound 1 µM) 1.59%.
